# Measurements reported in patent publication US7820711B2, “Uses of selective inhibitors of HDAC8 for treatment of T-cell proliferative disorders” (Pharmacyclics Inc., priority 2006, dated 2010).
# T1: HDAC-8 (Homo sapiens, UniProt Q9BY41)
# T1 sequence (Q9BY41 1-377): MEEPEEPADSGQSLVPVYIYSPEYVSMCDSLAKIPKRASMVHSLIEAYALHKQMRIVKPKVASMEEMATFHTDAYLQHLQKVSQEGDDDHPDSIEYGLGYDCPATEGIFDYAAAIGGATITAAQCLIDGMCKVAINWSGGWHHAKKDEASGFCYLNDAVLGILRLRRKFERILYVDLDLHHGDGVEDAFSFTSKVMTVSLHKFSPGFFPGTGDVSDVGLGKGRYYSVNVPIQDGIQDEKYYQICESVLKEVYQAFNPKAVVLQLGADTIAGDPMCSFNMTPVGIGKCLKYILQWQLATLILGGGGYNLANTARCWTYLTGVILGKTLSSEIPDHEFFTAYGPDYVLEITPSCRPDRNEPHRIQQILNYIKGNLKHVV
# T2: HDAC-6 (Homo sapiens, UniProt Q9UBN7)
# T2 sequence (Q9UBN7 1-1215): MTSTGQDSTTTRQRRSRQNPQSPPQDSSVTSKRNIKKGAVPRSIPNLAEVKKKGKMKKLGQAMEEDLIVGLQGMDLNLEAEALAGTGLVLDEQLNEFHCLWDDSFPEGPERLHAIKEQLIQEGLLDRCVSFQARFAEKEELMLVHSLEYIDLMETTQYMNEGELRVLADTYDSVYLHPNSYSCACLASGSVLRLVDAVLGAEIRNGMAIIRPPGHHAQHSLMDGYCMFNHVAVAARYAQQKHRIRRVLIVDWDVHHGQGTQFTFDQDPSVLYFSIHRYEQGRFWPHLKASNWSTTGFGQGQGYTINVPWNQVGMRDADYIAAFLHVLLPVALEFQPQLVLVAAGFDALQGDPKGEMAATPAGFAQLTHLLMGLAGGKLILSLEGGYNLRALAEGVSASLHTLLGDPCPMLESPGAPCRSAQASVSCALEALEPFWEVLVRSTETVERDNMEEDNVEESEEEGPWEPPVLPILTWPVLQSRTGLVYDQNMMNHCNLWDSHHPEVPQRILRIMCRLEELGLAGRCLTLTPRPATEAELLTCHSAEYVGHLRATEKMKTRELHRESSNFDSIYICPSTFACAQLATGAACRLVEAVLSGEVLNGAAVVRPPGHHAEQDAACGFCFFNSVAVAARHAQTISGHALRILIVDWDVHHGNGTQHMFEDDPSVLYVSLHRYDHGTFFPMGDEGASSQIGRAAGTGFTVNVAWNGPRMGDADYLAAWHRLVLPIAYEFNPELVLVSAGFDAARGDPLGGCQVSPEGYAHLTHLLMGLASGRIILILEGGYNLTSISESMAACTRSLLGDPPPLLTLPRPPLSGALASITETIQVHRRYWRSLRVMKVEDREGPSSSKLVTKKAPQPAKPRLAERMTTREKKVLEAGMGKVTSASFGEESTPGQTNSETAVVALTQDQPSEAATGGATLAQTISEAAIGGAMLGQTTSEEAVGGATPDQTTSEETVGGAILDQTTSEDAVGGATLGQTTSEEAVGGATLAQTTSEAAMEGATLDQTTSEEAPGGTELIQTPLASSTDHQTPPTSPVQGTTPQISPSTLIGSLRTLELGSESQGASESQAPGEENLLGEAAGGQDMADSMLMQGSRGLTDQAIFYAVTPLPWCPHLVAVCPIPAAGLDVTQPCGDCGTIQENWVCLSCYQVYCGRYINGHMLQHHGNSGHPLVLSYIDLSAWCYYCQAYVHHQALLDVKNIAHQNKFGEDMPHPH
# T3: HDAC-10 (Homo sapiens, UniProt Q969S8)
# T3 sequence (Q969S8 1-669): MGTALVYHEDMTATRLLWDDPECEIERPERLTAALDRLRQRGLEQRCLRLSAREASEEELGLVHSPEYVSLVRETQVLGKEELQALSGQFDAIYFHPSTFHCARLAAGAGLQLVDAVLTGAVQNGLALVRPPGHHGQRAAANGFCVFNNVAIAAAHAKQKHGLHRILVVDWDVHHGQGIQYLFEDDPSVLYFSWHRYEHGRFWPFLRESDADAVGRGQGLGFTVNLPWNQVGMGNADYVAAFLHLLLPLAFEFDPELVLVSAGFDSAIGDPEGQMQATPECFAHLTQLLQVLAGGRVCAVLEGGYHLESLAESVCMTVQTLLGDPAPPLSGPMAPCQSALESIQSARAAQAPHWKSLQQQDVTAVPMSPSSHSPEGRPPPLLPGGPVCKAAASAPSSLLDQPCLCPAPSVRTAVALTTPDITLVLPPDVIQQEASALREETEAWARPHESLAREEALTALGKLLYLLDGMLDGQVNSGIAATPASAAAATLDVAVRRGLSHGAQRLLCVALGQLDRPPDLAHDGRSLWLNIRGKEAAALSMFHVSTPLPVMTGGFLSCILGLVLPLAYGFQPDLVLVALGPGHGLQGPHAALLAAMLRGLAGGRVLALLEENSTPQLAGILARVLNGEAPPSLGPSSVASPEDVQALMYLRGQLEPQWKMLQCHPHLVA
# B1: FasL: a pro-apoptotic protein (protein, UniProt P48023 130-281, looked up)
# Tumor necrosis factor ligand …: QIGHPSPPPEKKELRKVAHLTGKSNSRSMPLEWEDTYGIVLLSGVKYKKGGLVINETGLYFVYSKVYFRGQSCNNLPLSHKVYMRNSKYPQDLVMMEGKMMSYCTTGQMWARSSYLGAVFNLTSADHLYVNVSELSLVNFEESQTFFGLYKL
# Assays:
# Jurkat cells [1] = assay: modulation of Compound 23-induced apoptosis in Jurkat cells; conditions: compound 23 10 μM
# Ramos cells [2] = assay: ratiometric fluorescence calcium imaging, Ramos cells; assay type: cell-based; conditions: FIG. 15
# [3] = test system: PLC-γ1-deficient Jurkat J.γ1 cells; assay: ratiometric fluorescence calcium imaging, J.γ1 cells; assay type: cell-based, human; conditions: FIG. 14
# Jurkat cells [4] = assay: ratiometric fluorescence calcium imaging, Jurkat cells; assay type: cell-based, human; conditions: for intracellular calcium mobilization / time to rise in intracellular calcium: 10 μM, FIG. 10; for dose dependence of calcium mobilization: FIGS. 12 and 13; for effect on compound 23-stimulated increase in intracellular Ca2+ levels: FIG. 11
# [5] = test system: P116 (ZAP-70 deficient Jurkat); assay: Apoptosis in P116 cells
# [6] = test system: PLC-deficient J.γ1 Jurkat cells; assay: cytochrome C translocation from mitochondria to cytosol, J.γ1 Jurkat; conditions: HDAC inhibitors 12 or 24 hours, FIG. 9
# Jurkat WT = assay: Apoptosis in Jurkat WT cells
# Ramos cells [7] = assay: apoptosis in Ramos cells; assay type: cell-based
# [8] = test system: J.RT3-T.5 (TCR-b chain deficient Jurkat); assay: Apoptosis in J.RT3-T.5 cells
# [9] = test system: J.g1 (Phospholipase C-g1 deficient Jurkat); assay: Apoptosis in J.g1 cells
# wild type Jurkat cells = assay: cytochrome C translocation from mitochondria to cytosol, wild type Jurkat; conditions: HDAC inhibitors 12 or 24 hours, FIG. 9
# HDAC-2 = HDAC-2 (Homo sapiens, UniProt Q92769); assay: in vitro HDAC inhibition, HDAC-2; assay type: biochemical
# HDAC-2, sequence (Q92769 whole entry): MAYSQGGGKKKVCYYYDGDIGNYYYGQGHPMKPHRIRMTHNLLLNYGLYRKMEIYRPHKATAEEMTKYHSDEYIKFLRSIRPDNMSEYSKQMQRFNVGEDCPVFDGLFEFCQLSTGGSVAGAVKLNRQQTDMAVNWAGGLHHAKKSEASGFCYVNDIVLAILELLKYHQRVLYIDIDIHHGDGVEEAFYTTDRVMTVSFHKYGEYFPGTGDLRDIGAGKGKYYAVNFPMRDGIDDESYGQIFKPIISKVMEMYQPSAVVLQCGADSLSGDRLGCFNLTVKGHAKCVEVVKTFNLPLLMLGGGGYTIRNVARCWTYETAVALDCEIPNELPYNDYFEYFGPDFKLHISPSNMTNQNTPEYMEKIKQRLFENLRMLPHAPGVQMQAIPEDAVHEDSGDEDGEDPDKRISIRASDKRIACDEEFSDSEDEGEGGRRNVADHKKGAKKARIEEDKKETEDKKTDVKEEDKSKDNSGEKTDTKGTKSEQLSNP
# HDAC-8 = target: T1, HDAC-8; assay: in vitro HDAC inhibition, HDAC-8; assay type: biochemical
# HDAC-6 = target: T2, HDAC-6; assay: in vitro HDAC inhibition, HDAC-6; assay type: biochemical
# HDAC-3 = HDAC-3 (Homo sapiens, UniProt O15379); assay: in vitro HDAC inhibition, HDAC-3; assay type: biochemical
# HDAC-3, sequence (O15379 whole entry): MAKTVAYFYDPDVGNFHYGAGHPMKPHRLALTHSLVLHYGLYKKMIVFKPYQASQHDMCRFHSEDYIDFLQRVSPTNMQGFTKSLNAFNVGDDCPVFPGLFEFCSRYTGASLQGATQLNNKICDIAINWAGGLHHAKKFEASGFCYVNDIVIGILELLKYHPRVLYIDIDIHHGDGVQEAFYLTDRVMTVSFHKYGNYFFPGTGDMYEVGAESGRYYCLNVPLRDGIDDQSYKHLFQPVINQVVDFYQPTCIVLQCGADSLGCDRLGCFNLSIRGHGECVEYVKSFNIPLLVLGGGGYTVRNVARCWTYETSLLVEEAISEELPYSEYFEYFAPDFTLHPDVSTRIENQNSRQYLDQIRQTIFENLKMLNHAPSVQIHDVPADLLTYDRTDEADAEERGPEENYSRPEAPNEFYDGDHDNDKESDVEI
# HDAC-3, sequence (Q9Y618 395-489 partner limits assumed): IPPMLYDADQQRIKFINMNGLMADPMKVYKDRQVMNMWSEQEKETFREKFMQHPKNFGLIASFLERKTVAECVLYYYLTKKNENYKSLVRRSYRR
# HDAC-10 = target: T3, HDAC-10; assay: in vitro HDAC inhibition, HDAC-10; assay type: biochemical
# HDAC-1 = HDAC-1 (Homo sapiens, UniProt Q13547); assay: in vitro HDAC inhibition, HDAC-1; assay type: biochemical
# HDAC-1, sequence (Q13547 whole entry): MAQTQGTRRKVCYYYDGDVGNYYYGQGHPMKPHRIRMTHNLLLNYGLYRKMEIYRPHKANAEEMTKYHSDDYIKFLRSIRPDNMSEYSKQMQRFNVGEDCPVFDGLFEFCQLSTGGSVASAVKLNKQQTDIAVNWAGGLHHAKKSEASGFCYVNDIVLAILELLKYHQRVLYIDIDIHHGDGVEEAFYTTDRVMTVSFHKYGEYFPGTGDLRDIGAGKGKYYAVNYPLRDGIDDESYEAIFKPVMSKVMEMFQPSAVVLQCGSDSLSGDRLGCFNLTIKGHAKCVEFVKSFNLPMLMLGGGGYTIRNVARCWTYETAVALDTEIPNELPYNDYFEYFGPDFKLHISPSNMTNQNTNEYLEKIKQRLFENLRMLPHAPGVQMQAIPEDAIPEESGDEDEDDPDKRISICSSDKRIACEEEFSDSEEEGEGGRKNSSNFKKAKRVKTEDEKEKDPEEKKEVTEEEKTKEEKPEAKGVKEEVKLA
molecule,measurement,setting,value
CC(=O)OCOC(=O)CN(CC(=O)OCOC(C)=O)c1ccccc1OCCOc1ccccc1N(CC(=O)OCOC(C)=O)CC(=O)OCOC(C)=O [BAPTA-AM],effect on Compound 23-induced apoptosis,"Jurkat cells [1]; BAPTA-AM 0.5 μM, FIG. 8(B)",diminished apoptosis
CN(C)Cc1c(C(=O)NCCOc2ccc(C(=O)NO)cc2)oc2ccccc12 [CRA-024781],intracellular calcium levels,Ramos cells [2],robust increase
same,effect on intracellular Ca2+,[3],completely abolished
same,intracellular calcium mobilization,Jurkat cells [4],sustained rise in intracellular calcium
same,time to rise in intracellular calcium,Jurkat cells [4],approximately 1 minute
same,dose dependence of calcium mobilization,Jurkat cells [4],dose dependent
"COc1ccc(Cn2ccc3ccc(C(=O)NO)cc32)cc1 [Compound 23, 1-(4-methoxy-phenylmethyl)-1H-indole-6-carboxylic acid hydroxyamide]",Apoptosis at 5 μM,[5],82%
same,intracellular calcium levels,Ramos cells [2],did not alter resting calcium levels
same,cytochrome C translocation from mitochondria to cytosol,[6],failed to alter the localization
same,Apoptosis at 5 μM,Jurkat WT,43%
same,effect on intracellular Ca2+,[3],completely abolished
same,induction of apoptosis,Ramos cells [7],failure to induce apoptosis
same,intracellular calcium mobilization,Jurkat cells [4],sustained rise in intracellular calcium
same,time to rise in intracellular calcium,Jurkat cells [4],approximately 1 minute
same,dose dependence of calcium mobilization,Jurkat cells [4],dose dependent
same,Apoptosis at 5 μM,[8],67%
same,Apoptosis at 5 μM,[9],12%
same,cytochrome C translocation from mitochondria to cytosol,wild type Jurkat cells,induced translocation
"Cn1cc(Cc2ccc(F)cc2)c2cc(C(=O)NO)ccc21 [Compound 33, 1-methyl-3-(4-fluoro-phenylmethyl)-1H-indole-5-carboxylic acid hydroxyamide]",IC50,HDAC-2,23 µM
same,IC50,HDAC-8,0.024 µM
same,HDAC8 IC50 fold lower than the next lowest HDAC target IC50,"HDAC-8; vs HDACs 1, 2, 3, 6, 10",~15 fold
same,IC50,HDAC-6,0.36 µM
same,IC50,HDAC-3,1.5 µM
same,IC50,HDAC-10,5.3 µM
same,IC50,HDAC-1,2.6 µM
COc1ccc2c(c1)CC[C@@H]1[C@@H]2CC[C@]2(C)[C@@H](NCCCCCCN3C(=O)C=CC3=O)CC[C@@H]12 [Compound U-73122],effect on Compound 23-induced apoptosis,Jurkat cells [1]; FIG. 7,inhibited Compound 23-induced apoptosis in a dose-dependent manner
same,effect on compound 23-stimulated increase in intracellular Ca2+ levels,Jurkat cells [4],strongly inhibited
COc1ccc2c(c1)CC[C@@H]1[C@@H]2CC[C@]2(C)[C@@H](NCCCCCCN3C(=O)CCC3=O)CC[C@@H]12 [Compound U-73343],effect on Compound 23-induced apoptosis,Jurkat cells [1]; FIG. 7,failed to block
same,effect on compound 23-stimulated increase in intracellular Ca2+ levels,Jurkat cells [4],not
C/C=C(/C)C(=O)O[C@H]1C(C)=C2[C@H]([C@@H]1OC(=O)CCCCCCC)[C@@](C)(OC(C)=O)C[C@H](OC(=O)CCC)[C@@]1(O)[C@H]2OC(=O)[C@@]1(C)O [thapsigargin],effect on Compound 23-induced apoptosis,"Jurkat cells [1]; thapsigargin 0.2 μM, FIG. 8(A)",enhanced apoptosis
B1,cytochrome C translocation from mitochondria to cytosol,[6],effectively induced translocation
same,cytochrome C translocation from mitochondria to cytosol,wild type Jurkat cells,effectively induced translocation
